Several values for one entry are separate records, joined by “and”; a condition that tells them apart may be missing. Identical values can stand only once.
Tested on: not listed separately
Test: Peripheral blood pressure after intravenous dose
Type: in vivo, New Zealand white rabbits
Details: 1 mg/kg i.v. dose
Source text: […] R. May, C. M. Hero, K. D. Butler, C. P. Page, JOURNAL OF PHARMACOLOGICAL METHODS, 24, pp 1-35, 1990. Peripheral blood pressure was monitored by a pressure sensor in the carotid artery.

Compound | BLOOD PRESSURE Δ% of NORM
CCCCCC(NC(=O)C1CCCN1C(=O)C(N)Cc1ccccc1)P(=O)(Oc1ccccc1)Oc1ccccc1 [Compound 20, D-Phe-Pro-Pgl^P(OPh)2] | NONE
Z-D-Phe-Pro-BoroMbg-OPin [Compound 59] | NONE

Same assay, conditions: 4 mg/kg iv. dose

Compound | BLOOD PRESSURE Δ% of NORM
CCC(C)CC(NC(=O)[C@@H]1CCCN1C(=O)[C@@H](Cc1ccccc1)NC(=O)OCc1ccccc1)B1OC2CC3CC(C3(C)C)C2(C)O1 (stereo partly drawn) [Compound 22, Z-D-Phe-Pro-BoroMbg-OPin] | 0 Δ% of NORM

Target: T1, Xa (Homo sapiens, UniProt P00742)
T1 construct: Plasmin; Xa; Urokinase
Test: IC50 against Xa
Type: biochemical
Details: single value given, incubation not given; read-out: Xa no inc/inc

T1 sequence (P00742 41-179 limits assumed): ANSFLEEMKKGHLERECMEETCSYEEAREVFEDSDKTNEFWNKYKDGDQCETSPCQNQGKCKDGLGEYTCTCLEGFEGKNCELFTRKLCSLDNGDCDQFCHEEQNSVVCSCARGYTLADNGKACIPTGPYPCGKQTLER
T1 sequence (P00742 235-488 limits assumed): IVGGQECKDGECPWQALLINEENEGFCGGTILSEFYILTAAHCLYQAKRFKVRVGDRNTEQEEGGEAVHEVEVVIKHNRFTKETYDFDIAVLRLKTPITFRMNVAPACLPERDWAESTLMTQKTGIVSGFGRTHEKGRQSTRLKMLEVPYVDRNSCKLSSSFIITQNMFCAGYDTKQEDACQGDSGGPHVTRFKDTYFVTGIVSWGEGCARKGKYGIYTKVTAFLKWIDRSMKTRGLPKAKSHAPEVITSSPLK

Compound | IC50
CCC(C)CC(NC(=O)[C@@H]1CCCN1C(=O)[C@@H](Cc1ccccc1)NC(=O)OCc1ccccc1)B1OC2CC3CC(C3(C)C)C2(C)O1 (stereo partly drawn) [Compound 22, Z-D-Phe-Pro-BoroMbg-OPin] | 3.86 µM

Target: Urokinase (Homo sapiens, UniProt P00749)
Test: IC50 against urokinase
Type: biochemical
Details: single value given, incubation not given; read-out: Urokinase no inc/inc

Compound | IC50
CCC(C)CC(NC(=O)[C@@H]1CCCN1C(=O)[C@@H](Cc1ccccc1)NC(=O)OCc1ccccc1)B1OC2CC3CC(C3(C)C)C2(C)O1 (stereo partly drawn) [Compound 22, Z-D-Phe-Pro-BoroMbg-OPin] | 9.13 µM

Target: Plasmin (Homo sapiens, UniProt P00747)
Test: IC50 against plasmin
Type: biochemical
Details: single value given, incubation not given; read-out: Plasmin no inc/inc

Sequence of Plasmin (P00747 97-580 limits assumed, species assumed): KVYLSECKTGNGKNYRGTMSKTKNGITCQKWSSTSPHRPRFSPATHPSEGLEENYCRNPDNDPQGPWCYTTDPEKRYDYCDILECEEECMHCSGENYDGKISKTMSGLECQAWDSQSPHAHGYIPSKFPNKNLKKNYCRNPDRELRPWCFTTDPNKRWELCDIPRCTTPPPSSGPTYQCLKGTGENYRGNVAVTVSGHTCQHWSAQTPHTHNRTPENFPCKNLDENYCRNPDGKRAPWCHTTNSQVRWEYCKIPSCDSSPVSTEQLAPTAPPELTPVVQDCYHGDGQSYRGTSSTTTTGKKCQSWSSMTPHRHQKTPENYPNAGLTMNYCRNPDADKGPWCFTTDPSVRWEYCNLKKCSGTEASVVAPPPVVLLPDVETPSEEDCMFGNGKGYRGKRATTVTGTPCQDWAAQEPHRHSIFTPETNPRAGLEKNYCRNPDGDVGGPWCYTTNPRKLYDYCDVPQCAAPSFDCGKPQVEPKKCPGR
Sequence of Plasmin (P00747 581-810 limits assumed, species assumed): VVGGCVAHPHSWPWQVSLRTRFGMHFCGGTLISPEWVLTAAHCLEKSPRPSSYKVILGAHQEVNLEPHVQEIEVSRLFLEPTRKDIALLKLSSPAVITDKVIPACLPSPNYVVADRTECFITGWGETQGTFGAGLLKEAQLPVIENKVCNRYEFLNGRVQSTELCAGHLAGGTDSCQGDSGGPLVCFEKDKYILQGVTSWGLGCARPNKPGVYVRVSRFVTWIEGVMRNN

Compound | IC50
CCC(C)CC(NC(=O)[C@@H]1CCCN1C(=O)[C@@H](Cc1ccccc1)NC(=O)OCc1ccccc1)B1OC2CC3CC(C3(C)C)C2(C)O1 (stereo partly drawn) [Compound 22, Z-D-Phe-Pro-BoroMbg-OPin] | 11.5 µM

Target: human α-thrombin (Homo sapiens, UniProt P00734)
Test: biochemical
Type: biochemical
Details: not given
Protocol: The inhibition of human α-thrombin was determined by the inhibition of the enzyme catalyzed hydrolysis of three different concentrations of the chromogenic substrate S-2238.
200 μl of sample or buffer and 50 μl of S-2238 were incubated at 37° C. for 1 min and 50 μl of human α-thrombin (0.25 NIHu/ml) was added. The initial rate of inhibited and uninhibited reactions were recorded at 405 nm. The increase in optical density was plotted according to the method of Lineweaver and Burke. The Km and apparent Km were determined and Ki was calculated using the relationship: [formula]

Compound | Ki
CCCCCC(NC(=O)C1CCCN1C(=O)C(N)Cc1ccccc1)P(=O)(Oc1ccccc1)Oc1ccccc1 [Compound 20, D-Phe-Pro-Pgl^P(OPh)2] | 0.109 µM

Tested on: bovine thrombin in plasma samples
Test: Ex-vivo TT
Type: in vivo, New Zealand white rabbits
Design: key: thrombin (coagulation) time in seconds
Details: time 0 min, 1 mg/kg i.v. bolus, rabbit
Protocol: A volume of 150 μl of citrated normal human plasma and 20 μl of buffer or sample were warmed at 37° C. for 1 min. Coagulation was started by adding 150 ul of freshly prepared bovine thrombin (5 NIHu/ml saline) and the coagulation time was recorded on a coagulometer.
A phosphate buffer, pH 7.8, containing 0.1% bovine serum albumine and 0.02% sodium azide was used. The samples were dissolved in DMSO and diluted with the buffer. When no inhibitor was used DMSO was added to the buffer to the same concentration as that used in the samples. The inhibitor concentrations were plotted against the thrombin times in a semilogarithmic graph from which the inhibitor concentration that caused a doubling (40 sec) of the thrombin time was determined.
(§1) Data was obtained as for in-vitro tests, but using plasma samples obtained at 0, 1, 10, 30 and 60 minutes after dosing of 1 mg/kg, i.v. bolus injection in a marginal ear vein in New Zealand white rabbits, which were anaesthetized from a canula in the carotid artery. [drawing 18]

Compound | EX-VIVO T.T.
Z-D-Phe-Pro-BoroMbg-OPin [Compound 59] | 28.9 and 22.5 and 22.4 and 23.5

Same assay, conditions: time 1 min, 1 mg/kg i.v. bolus, rabbit

Compound | EX-VIVO T.T.
Z-D-Phe-Pro-BoroMbg-OPin [Compound 59] | 111 and 106 and 171.5 and 168.5

Same assay, conditions: time 10 min, 1 mg/kg i.v. bolus, rabbit

Compound | EX-VIVO T.T.
Z-D-Phe-Pro-BoroMbg-OPin [Compound 59] | 35.9 and 34 and 37.9 and 38.4

Same assay, conditions: time 30 min, 1 mg/kg i.v. bolus, rabbit

Compound | EX-VIVO T.T.
Z-D-Phe-Pro-BoroMbg-OPin [Compound 59] | 29 and 30 and 32 and 31

Same assay, conditions: time 60 min, 1 mg/kg i.v. bolus, rabbit

Compound | EX-VIVO T.T.
Z-D-Phe-Pro-BoroMbg-OPin [Compound 59] | 28.4 and 28.5 and 27.9 and 28

Target: not listed separately
Test: IC50 with and without incubation (enzyme not given)
Type: biochemical
Details: no incubation; read-out: IC50 No Incubations

Compound | IC50
CCC(C)CC(NC(=O)[C@@H]1CCCN1C(=O)[C@@H](Cc1ccccc1)NC(=O)OCc1ccccc1)B1OC2CC3CC(C3(C)C)C2(C)O1 (stereo partly drawn) [Compound 22, Z-D-Phe-Pro-BoroMbg-OPin] | 0.007 µM

Tested on: plasma samples
Test: Ex-vivo APTT
Type: in vivo, New Zealand white rabbits
Design: unit not given here
Details: time 0 min, 1 mg/kg i.v. bolus, rabbit
Protocol: A volume of 150 μl of citrated (3.2%) normal human plasma was incubated at 37° C. with sample (20 μl) or buffer (20 μl, control) for 1 min. To the solution was added reconstituted “AUTOMATED APTT” (available from Organon Teknika, 0.1 ml). Each solution was activated at 37° C. for 5 min.
After activation, calcium chloride (0.1 ml, 0.025M, prewarmed at 37° C.) was added and clot detection was timed using a “semiautomated coagulometer” (Nach, Schnicter und Gross).
as §1

Compound | EX-VIVO A.P.T.T.
Z-D-Phe-Pro-BoroMbg-OPin [Compound 59] | 42 and 59.5 and 43.9 and 58

Same assay, conditions: time 1 min, 1 mg/kg i.v. bolus, rabbit

Compound | EX-VIVO A.P.T.T.
Z-D-Phe-Pro-BoroMbg-OPin [Compound 59] | 111.4 and 111 and 102.9 and 126

Same assay, conditions: time 10 min, 1 mg/kg i.v. bolus, rabbit

Compound | EX-VIVO A.P.T.T.
Z-D-Phe-Pro-BoroMbg-OPin [Compound 59] | 48.9 and 53 and 60.5 and 67

Same assay, conditions: time 30 min, 1 mg/kg i.v. bolus, rabbit

Compound | EX-VIVO A.P.T.T.
Z-D-Phe-Pro-BoroMbg-OPin [Compound 59] | 34.9 and 49 and 59 and 53.9

Same assay, conditions: time 60 min, 1 mg/kg i.v. bolus, rabbit

Compound | EX-VIVO A.P.T.T.
Z-D-Phe-Pro-BoroMbg-OPin [Compound 59] | 40.4 and 48.4 and 65.5 and 62

Tested on: 111indium-labelled platelets
Test: Deposition of 111indium-labelled platelets after intravenous dose
Type: in vivo, New Zealand white rabbits
Details: 1 mg/kg i.v. dose
Source text: M. Hero, K. D. Butler, C. […] Peripheral blood pressure was monitored by a pressure sensor in the carotid artery.

Compound | PLATELET ACCUMULATION (% OF NORMAL) LEG | PLATELET ACCUMULATION (% OF NORMAL) LUNG
CCCCCC(NC(=O)C1CCCN1C(=O)C(N)Cc1ccccc1)P(=O)(Oc1ccccc1)Oc1ccccc1 [Compound 20, D-Phe-Pro-Pgl^P(OPh)2] | NONE | NONE
Z-D-Phe-Pro-BoroMbg-OPin [Compound 59] | NONE | NONE

Same assay, conditions: 4 mg/kg iv. dose

Compound | PLATELET ACCUMULATION (% OF NORMAL) LEG | PLATELET ACCUMULATION (% OF NORMAL) LUNG
CCC(C)CC(NC(=O)[C@@H]1CCCN1C(=O)[C@@H](Cc1ccccc1)NC(=O)OCc1ccccc1)B1OC2CC3CC(C3(C)C)C2(C)O1 (stereo partly drawn) [Compound 22, Z-D-Phe-Pro-BoroMbg-OPin] | 11%, TRANSIENT % OF NORMAL | NONE

Tested on: Kalhikrein
Test: IC50 against kallikrein
Type: biochemical
Details: single value given, incubation not given; read-out: Kalhikrein no inc/inc

Compound | IC50
CCC(C)CC(NC(=O)[C@@H]1CCCN1C(=O)[C@@H](Cc1ccccc1)NC(=O)OCc1ccccc1)B1OC2CC3CC(C3(C)C)C2(C)O1 (stereo partly drawn) [Compound 22, Z-D-Phe-Pro-BoroMbg-OPin] | 12.9 µM

From patent publication US6387881B1, “Inhibitors and substrates of thrombin” (priority 1992, dated 2002)
